Our source for the EC50 values is patent publication US12268694B2, “Combination pharmaceutical agents as RSV inhibitors” (Enanta Pharmaceuticals, Inc., priority 2017, dated 2025).

SMILES strings stand for the structures. Like-named read-outs stand apart in the source and are kept apart here.

In this assay the test system is genotype A, "Long" strain RSV. Put plainly: RSV-A assay: CPE protection in HEp-2 cells, ATPlite readout. The assay is classed as cell-based, human respiratory syncytial virus. In short, it runs like this:
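HEp-2 cells (8,000/well) with 2-fold compound dilutions in duplicate, infected with Long-strain RSV at MOI 0.1 and incubated 5 days. Cell ATP measured by ATPlite luminescence to give EC50; uninfected parallel plate gives CC50.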

Setting [1] is: human respiratory syncytial virus, HEp-2, read-out: Human RSV-A (“Long” strain) EC50.
Setting [2] is: HEp-2 cells, RSV-A Long strain, ATPlite readout, read-out: Human RSV-A (“Long” strain) EC50.

As for `O=C1Nc2ccccc2C(c2ccccc2)=N[C@@H]1Nc1nnc(-c2cnc(-n3cccn3)nc2N2CCOCC2)o1` [Example 172], the EC50 (usually the concentration needed to bring the measured effect to its halfway point) under setting [1] is more than 800 nM.

With `O=C1Nc2ccccc2C(c2ccccc2)=N[C@@H]1Nc1nnc(-c2cnc(C(F)(F)F)nc2N2CCOCC2)o1` [Example 162], the EC50 under setting [1] is less than 400 nM.

On to `COc1ccc2nccc(-c3nnc(N[C@H]4N=C(c5ccccc5)c5ccccc5NC4=O)o3)c2c1` [Example 408], for which, under setting [1], the EC50 was more than 800 nM.

With `O=C1Nc2ccccc2C(c2ccccc2)=NC1Nc1nnc(-c2ccc(-n3cncn3)cc2)o1` (stereo not shown) [Example 273], under setting [1], the EC50 was 400 to 800 nM.

With `C[C@@H]1CN(c2ccc(-c3nnc(N[C@H]4N=C(c5ccccc5)c5ccccc5NC4=O)o3)c(Cl)c2)C[C@H](C)O1` [Example 243], the EC50 under setting [1] is more than 800 nM.

For `CN1CCN(c2ncccc2-c2nnc(NC3N=C(c4ccccc4)c4ccccc4NC3=O)o2)CC1` (stereo not shown) [Example 237], the EC50 under setting [1] was more than 800 nM.

Regarding `O=C1Nc2ccccc2C(c2ccccc2)=NC1Nc1cc(N2CCOCC2)cnn1` (stereo not shown) [Example 463], the EC50 under setting [1] is more than 800 nM.

Take `COc1ccc(-c2ccc(NC3N=C(c4ccccc4)c4ccccc4NC3=O)nn2)cc1` (stereo not shown) [Example 376]: the EC50 under setting [1] is more than 800 nM.

Turning to `O=C1Nc2ccccc2C(c2ccccc2)=N[C@@H]1Nc1nnc(-c2occc2N2CCOCC2)o1` [Example 348], the EC50 under setting [1] was less than 400 nM.

`CN(c1nnc(-c2ccc(F)cc2)o1)C1N=C(c2ccccc2)c2ccccc2NC1=O` (stereo not shown) [Example 209]: under setting [1], the EC50 was more than 800 nM.

Regarding `O=C1Nc2ccccc2C(c2ccccc2)=N[C@H]1Nc1nnc(-c2ccccc2N2CCOCC2)o1` [Example 125b], the concentration for a half-maximal effect (EC50) under setting [1] is more than 800 nM.

For the compound `Cn1nnc(-c2ccc(-c3nnc(NC4N=C(c5ccccc5)c5ccccc5NC4=O)o3)cc2)n1` (stereo not shown) [Example 186], under setting [1], the EC50 was more than 800 nM.

For `O=C1Nc2ccccc2C(c2ccccc2)=N[C@@H]1Nc1nnc(-c2cnc(C3CC3)nc2N2CCOCC2)o1` [Example 167], under setting [1], the EC50 is less than 400 nM.

As for `COc1cc(-c2nnc(NC3N=C(c4ccccc4)c4ccccc4NC3=O)o2)ccn1` (stereo not shown) [Example 56], the EC50 under setting [1] is more than 800 nM.

With `O=C1Nc2ccccc2C(c2ccccc2)=NC1Nc1nnc(-c2ccc(F)cc2)[nH]1` (stereo not shown) [Example 363], under setting [1], the EC50 was more than 800 nM.

`O=C1Nc2ccccc2C(c2ccccc2)=NC1Nc1nnc(-c2cccnc2N2CCCC(F)(F)C2)o1` (stereo not shown) [Example 246]: the EC50 under setting [1] was more than 800 nM.

As for `O=C1Nc2ccccc2C(c2ccccc2)=NC1Nc1nnc(-c2cnccc2N2CCOCC2)o1` (stereo not shown) [Example 133], the EC50 under setting [1] was in the range of 400 to 800 nM.

In the case of `O=C1Nc2ccccc2C(c2ccccc2)=NC1Nc1nnc(-c2ncc(C(F)F)cc2N2CCOCC2)o1` (stereo not shown) [Example 461], under setting [1], the EC50 was less than 400 nM.

`O=C1Nc2ccccc2C(c2ccccc2)=N[C@H]1Nc1nnc(-c2nc(C(F)(F)F)sc2N2CCO[C@@H]3C[C@@H]32)o1` [Example 486]: under setting [2], the EC50 was more than 800 nM.

For `O=C1Nc2ccccc2C(c2ccccc2)=NC1Nc1nnc(-c2ccncc2N2CCOCC2)o1` (stereo not shown) [Example 142], the EC50 under setting [1] fell in the range of 400 to 800 nM.

`N#Cc1cnc(-c2nnc(N[C@H]3N=C(c4ccccc4)c4ccccc4NC3=O)o2)c(N2CCOCC2)c1` [Example 325]: the EC50 under setting [1] was less than 400 nM.

On to `O=C1Nc2ccccc2C(c2ccccc2)=N[C@@H]1Nc1nnc(-c2cnc(N3CC4CCC(C3)O4)nc2)o1` [Example 166], for which the EC50 under setting [1] was more than 800 nM.

For `Cc1nc(-c2nnc(N[C@H]3N=C(c4ccccc4)c4ccccc4NC3=O)o2)c(C2=CCOCC2)s1` [Example 345, (S)-3-((5-(5-(3,6-dihydro-2H-pyran-4-yl)-2-methylthiazol-4-yl)-1,3,4-oxadiazol-2-yl)amino)-5-phenyl-1,3-dihydro-2H-benzo[e][1,4]diazepin-2-one], the EC50 under setting [1] is less than 400 nM.

Regarding `N#Cc1cnc(-c2nnc(N[C@H]3N=C(c4ccccc4)c4ccccc4NC3=O)o2)c(N2C3CCC2COC3)c1` [Example 333], the EC50 under setting [1] lay within 400 to 800 nM.

`O=C1Nc2ccccc2C(c2ccccc2)=NC1Nc1nnc(C2CC(F)(F)C2)o1` (stereo not shown) [Example 214]: under setting [1], the EC50 is more than 800 nM.

For the compound `N#Cc1cnc(N2CCOCC2)c(-c2nnc(N[C@H]3N=C(c4ccccc4)c4ccccc4NC3=O)o2)c1` [Example 174], the EC50 under setting [1] is less than 400 nM.

For the compound `C[C@@H]1CN(c2ncccc2-c2nnc(NC3N=C(c4ccccc4)c4ccccc4NC3=O)o2)CCO1` (stereo partly shown) [Example 262], the EC50 under setting [1] is more than 800 nM.

Regarding `COC1CCN(c2ncccc2-c2nnc(NC3N=C(c4ccccc4)c4ccccc4NC3=O)o2)CC1` (stereo not shown) [Example 254], the EC50 under setting [1] was more than 800 nM.

`CO[C@@H]1COC[C@H]1Nc1cc(C(F)(F)F)cnc1-c1nnc(N[C@H]2N=C(c3ccccc3)c3ccccc3NC2=O)o1` [Example 436]: the EC50 under setting [1] was less than 400 nM.

With `O=C1Nc2ccccc2C(c2ccccc2)=NC1Nc1nnc(-c2ccc(N3CCOCC3)cc2Cl)o1` (stereo not shown) [Example 122], the EC50 under setting [1] was more than 800 nM.

Turning to `O=C1Nc2ccccc2C(c2ccccc2)=NC1Nc1nnc(-c2c(F)cc(F)cc2N2CCOCC2)o1` (stereo not shown) [Example 171], the EC50 under setting [2] was more than 800 nM.

On to `O=C1Nc2ccccc2C(c2ccccc2)=NC1Nc1noc(-c2ccccc2)n1` (stereo not shown) [Example 91], for which, under setting [1], the EC50 was more than 800 nM.

Take `O=C1Nc2ccccc2C(c2ccccc2)=NC1Nc1nnc(-c2nc(Br)sc2N2CCOCC2)o1` (stereo not shown) [Example 400]: the EC50 under setting [1] was less than 400 nM.

Regarding `O=C1Nc2ccccc2C(c2ccccc2)=N[C@@H]1Nc1nnc(-c2nc(C3CC3)ccc2N2CCOCC2)o1` [Example 318], under setting [1], the EC50 was less than 400 nM.

Turning to `O=C1Nc2ccccc2C(c2ccccc2)=NC1Nc1nnc(-c2cccc(F)c2N2CCOCC2)o1` (stereo not shown) [Example 148], under setting [1], the EC50 was more than 800 nM.

For `O=C1Nc2ccccc2C(c2ccccc2)=NC1Nc1nnc(-c2ccc(-n3cncn3)cc2N2CCOCC2)o1` (stereo not shown) [Example 128], the EC50 under setting [1] lay within 400 to 800 nM.

On to `O=C1Nc2ccccc2C(c2ccccc2)=NC1Nc1nnc(-c2ccccc2OC2CCOCC2)o1` (stereo not shown) [Example 239], for which the EC50 under setting [1] is more than 800 nM.

On to `C#Cc1cnc(-c2nnc(N[C@H]3N=C(c4ccccc4)c4ccccc4NC3=O)o2)c(N2CCOCC2)c1` [Example 311], for which the EC50 under setting [1] is less than 400 nM.

With `CCn1cc(-c2nnc(N[C@H]3N=C(c4ccccc4)c4ccccc4NC3=O)o2)c(N2CCOCC2)n1` [Example 401], the EC50 under setting [1] was less than 400 nM.

Regarding `N#Cc1ccc(N2CCOCC2)c(-c2nnc(N[C@H]3N=C(c4ccccc4)c4ccccc4NC3=O)o2)n1` [Example 324], the EC50 under setting [1] is less than 400 nM.

In the case of `O=C1Nc2c(F)cccc2C(c2ccccc2)=N[C@H]1Nc1nnc(-c2ccccc2N2CCOCC2)o1` [Example 355b], under setting [1], the concentration for a half-maximal effect (EC50) is more than 800 nM.

As for `CS(=O)(=O)c1ccc(-c2nnc(NC3N=C(c4ccccc4)c4ccccc4NC3=O)o2)c(N2CCOCC2)c1` (stereo not shown) [Example 121], the EC50 under setting [1] was more than 800 nM.

For `O=C1Nc2ccccc2C(c2ccccc2)=N[C@@H]1Nc1nnc(-c2ncc(C(F)(F)F)cc2NCc2ccco2)o1` [Example 421], under setting [1], the EC50 is more than 800 nM.

As to `O=C1Nc2ccccc2C(c2ccccc2)=NC1Nc1nnc(-c2ccc(NC3CCCCC3)cc2)o1` (stereo not shown) [Example 116], the EC50 under setting [1] is more than 800 nM.

As for `CC1(c2nnc(NC3N=C(c4ccccc4)c4ccccc4NC3=O)o2)CC1` (stereo not shown) [Example 195], under setting [1], the EC50 was more than 800 nM.

For the compound `O=C1Nc2c(F)cccc2C(c2ccccc2)=N[C@@H]1Nc1nnc(-c2ncc(C(F)(F)F)cc2N2CCOCC2)o1` [Example 360], under setting [2], the EC50 is less than 400 nM.

For `CN1CCN(c2ccc(-c3nnc(NC4N=C(c5ccccc5)c5ccccc5NC4=O)o3)cc2)CC1` (stereo not shown) [Example 210], the EC50 under setting [1] is more than 800 nM.

In the case of `O=C1Nc2ccccc2C(c2ccccc2)=NC1Nc1nnc(-c2ccc(C(F)(F)F)nc2N2CCOCC2)o1` (stereo not shown) [Example 130], under setting [1], the EC50 fell in the range of 400 to 800 nM.

Take `O=C1Nc2ccccc2C(c2ccccc2)=N[C@@H]1Nc1nnc(-c2ccc(F)cc2N2CC3CCC(C2)O3)o1` [Example 288]: the EC50 under setting [1] was 400 to 800 nM.

`O=C1Nc2ccccc2C(c2ccccc2)=N[C@@H]1Nc1nnc(-c2cn(-c3ccc(C(F)(F)F)nc3)nc2N2CCOCC2)o1` [Example 444]: the EC50 under setting [2] is less than 400 nM.

Take `CCOC(=O)c1nnc(NC2N=C(c3ccccc3)c3ccccc3NC2=O)o1` (stereo not shown) [Example 78]: the EC50 under setting [1] is more than 800 nM.

Consider `Cc1nc2ccc(-c3nnc(NC4N=C(c5ccccc5)c5ccccc5NC4=O)o3)cc2s1` (stereo not shown) [Example 187], for which the EC50 under setting [1] was in the range of 400 to 800 nM.

With `O=C1Nc2ccccc2C(c2ccccc2)=NC1Nc1nnc(-c2cccnc2N2CCCCC2)o1` (stereo not shown) [Example 241], under setting [1], the EC50 was more than 800 nM.

`Cc1ccc(-c2nnc(N[C@H]3N=C(c4ccccc4)c4ccccc4NC3=O)o2)c(N2CCOC[C@H]2C)n1` [Example 286]: the EC50 under setting [1] is less than 400 nM.

As to `O=C1Nc2ccccc2C(c2ccccc2)=N[C@@H]1Nc1nnc(-c2nc3ccccn3c2N2CCOCC2)o1` [Example 163], under setting [1], the EC50 is more than 800 nM.

On to `O=C1Nc2ccccc2C(c2ccccc2)=NC1Nc1ncc(-c2ccc(Br)cc2)o1` (stereo not shown) [Example 370], for which, under setting [1], the EC50 was more than 800 nM.

As to `Cc1cc(-c2nnc(NC3N=C(c4ccccc4)c4ccccc4NC3=O)o2)ccc1-n1cncn1` (stereo not shown) [Example 217], the EC50 under setting [1] was 400 to 800 nM.

In the case of `COC[C@@H]1C[C@H]1c1sc(C(F)(F)F)nc1-c1nnc(N[C@H]2N=C(c3ccccc3)c3ccccc3NC2=O)o1` [Example 394], under setting [2], the EC50 was more than 800 nM.

As for `O=C1Nc2ccccc2C(c2ccccc2)=N[C@@H]1Nc1nnc(-c2cn(CC(F)(F)F)nc2N2CCOCC2)o1` [Example 489], the EC50 under setting [2] was more than 800 nM.

Regarding `C[C@H]1CN(c2cc(C#N)cnc2-c2nnc(N[C@H]3N=C(c4ccccc4)c4ccccc4NC3=O)o2)CCO1` [Example 329], under setting [1], the EC50 is less than 400 nM.

Regarding `C#Cc1nc(-c2nnc(N[C@H]3N=C(c4ccccc4)c4ccccc4NC3=O)o2)c(N2CCOCC2)s1` [Example 406], under setting [1], the EC50 is less than 400 nM.

In the case of `COc1cnc(-c2nnc(NC3N=C(c4ccccc4)c4ccccc4NC3=O)o2)c(F)c1` (stereo not shown) [Example 185], the EC50 under setting [1] was more than 800 nM.

Consider `CS(=O)(=O)c1ccc(-c2nnc(NC3N=C(c4ccccc4)c4ccccc4NC3=O)o2)nc1` (stereo not shown) [Example 107], for which the EC50 under setting [1] was more than 800 nM.

As for `O=C1Nc2ccccc2C(c2ccccc2)=N[C@@H]1Nc1nnc(-c2nc(C3(C(F)(F)F)CCC3)sc2N2CCOCC2)o1` [Example 490], under setting [1], the EC50 was less than 400 nM.
